This assay has as its target human TRPV4 (Homo sapiens (Human), UniProt Q9HBA0). Briefly: FLIPR assay for hTRPV4 expressed in BHK cells. The format is cell-based. How it is done: FLIPR Assay for hTRPV4 Expressed in BHK Cells:
TRPV4 channel activation results in an influx of divalent and monovalent cations including calcium. The resulting changes in intracellular calcium were monitored using a calcium specific fluorescent dye Fluo-4 (MDS Analytical Technologies). BHK/AC9 cells transduced with BacMam virus expressing the human TRPV4 gene at a MOI of 78 were plated in a 384 well poly-D lysine coated plate (15,000 cells/well in 50 μL culture medium containing DMEM/F12 with 15 mM HEPES, 10% FBS, 1% Penicillin-Streptomycin and 1% L-glutamine). Cells were incubated for 24 hours at 37° C. and 5% CO2. Culture medium was then aspirated using a Tecan plate-washer and replaced with 20 μL/well of dye loading buffer: HBSS, 500 μM Brilliant Black (MDS Analytical Technologies), and 2 μM Fluo-4 AM. Dye loaded plates were then incubated in the dark at room temperature for 1˜1.5 hours.

[1] abbreviates: inhibition of Agonist Compound-induced calcium signal (agonist at EC80), BHK/AC9 cells expressing human TRPV4, read-out: IC50.
The mark [2] stands for this setting: average in at least one set of experimental runs, inhibition of Agonist Compound-induced calcium signal, read-out: average IC50.

Like-named read-outs stand apart in the source and are kept apart here.

Sequence of human TRPV4 (Q9HBA0 whole entry): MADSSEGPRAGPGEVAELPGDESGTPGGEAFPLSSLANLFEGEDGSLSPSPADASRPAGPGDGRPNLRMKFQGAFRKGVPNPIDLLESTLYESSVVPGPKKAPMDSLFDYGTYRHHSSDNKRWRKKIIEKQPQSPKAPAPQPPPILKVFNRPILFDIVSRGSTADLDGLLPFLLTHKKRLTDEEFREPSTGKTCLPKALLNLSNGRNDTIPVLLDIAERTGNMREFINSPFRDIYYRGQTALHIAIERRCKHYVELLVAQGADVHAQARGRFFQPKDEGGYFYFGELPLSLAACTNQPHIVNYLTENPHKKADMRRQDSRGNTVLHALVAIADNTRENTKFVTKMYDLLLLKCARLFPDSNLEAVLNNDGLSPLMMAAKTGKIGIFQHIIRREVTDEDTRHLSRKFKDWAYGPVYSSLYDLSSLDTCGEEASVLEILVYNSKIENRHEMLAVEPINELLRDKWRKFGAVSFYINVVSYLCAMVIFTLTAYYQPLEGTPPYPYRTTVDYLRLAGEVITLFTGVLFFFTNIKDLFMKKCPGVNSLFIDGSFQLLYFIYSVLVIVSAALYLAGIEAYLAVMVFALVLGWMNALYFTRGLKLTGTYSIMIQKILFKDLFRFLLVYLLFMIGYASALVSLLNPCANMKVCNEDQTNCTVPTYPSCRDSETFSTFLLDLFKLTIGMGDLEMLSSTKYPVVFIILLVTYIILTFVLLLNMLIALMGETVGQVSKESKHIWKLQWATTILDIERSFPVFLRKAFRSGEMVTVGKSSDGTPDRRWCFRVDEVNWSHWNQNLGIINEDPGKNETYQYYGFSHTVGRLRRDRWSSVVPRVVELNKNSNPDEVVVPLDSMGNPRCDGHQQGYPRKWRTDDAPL

As usually defined, the IC50 is the concentration that inhibits the measured activity by half. Turning to `N#Cc1ccc(S(=O)(=O)N2C[C@H](Cc3ccc(C#N)c(F)c3)[C@](O)(CO)C2)c(Cl)c1` [Example 6, 4-(((3S,4R)-1-((2-chloro-4-cyanophenyl)sulfonyl)-4-hydroxy-4-(hydroxymethyl)pyrrolidin-3-yl)methyl)-2-fluorobenzonitrile], the IC50 under setting [1] was in the range of 0.0001 to 0.01 µM.

In the case of `N#Cc1ccc(C[C@H]2CN(S(=O)(=O)c3ccc(C(F)(F)F)cc3Cl)C[C@@]2(O)CO)cc1` [Example 2, 4-(((3S,4R)-1-((2-chloro-4-(trifluoromethyl)phenyl)sulfonyl)-4-hydroxy-4-(hydroxymethyl)pyrrolidin-3-yl)methyl)benzonitrile], the IC50 under setting [1] was 0.01 to 0.1 µM.

In the case of `N#Cc1ccc(C[C@H]2CN(S(=O)(=O)c3ccc(Cl)cn3)C[C@@]2(O)CN)cc1F` [Example 7, 4-(((3S,4S)-4-(aminomethyl)-1-((5-chloropyridin-2-yl)sulfonyl)-4-hydroxypyrrolidin-3-yl)methyl)-2-fluorobenzonitrile], the IC50 was 0.01 µM under setting [2] and 0.0001 to 0.01 µM under setting [1].

On to `N#Cc1ccc(C[C@H]2CN(S(=O)(=O)c3ccc(Cl)cc3Cl)C[C@@]2(O)CO)cc1F` [Example 1, 4-(((3S,4R)-1-((2,4-dichlorophenyl)sulfonyl)-4-hydroxy-4-(hydroxymethyl)pyrrolidin-3-yl)methyl)-2-fluorobenzonitrile], for which the IC50 reads like this: under setting [2], 0.008 µM; under setting [1], 0.0001 to 0.01 µM.

`N#Cc1ccc(C[C@H]2CN(S(=O)(=O)c3ccc(Cl)cc3Cl)C[C@]2(O)CO)cc1F` [Example 4, 4-(((3S,4S)-1-((2,4-dichlorophenyl)sulfonyl)-4-hydroxy-4-(hydroxymethyl)pyrrolidin-3-yl)methyl)-2-fluorobenzonitrile]: under setting [1], the IC50 was in the range of 0.01 to 0.1 µM.

Regarding `N#Cc1ccc(C[C@H]2CN(S(=O)(=O)c3ccc(C(F)(F)F)cc3C#N)C[C@@]2(O)CO)cc1F` [Example 5, 4-(((3S,4R)-1-((2-cyano-4-(trifluoromethyl)phenyl)sulfonyl)-4-hydroxy-4-(hydroxymethyl)pyrrolidin-3-yl)methyl)-2-fluorobenzonitrile], the IC50 under setting [1] lay in the range of 0.0001 to 0.01 µM.

As to `N#Cc1ccc(C[C@H]2CN(S(=O)(=O)c3ccc(Cl)cn3)C[C@@]2(O)CO)c(OCC(F)(F)F)c1` [Example 3, 4-(((3S,4R)-1-((5-chloropyridin-2-yl)sulfonyl)-4-hydroxy-4-(hydroxymethyl)pyrrolidin-3-yl)methyl)-3-(2,2,2-trifluoroethoxy)benzonitrile], under setting [1], the IC50 was 0.01 to 0.1 µM.

(Values after patent publication US10590077B2, “TRPV4 antagonists” (GlaxoSmithKline Intellectual Property (No.2) Limited, priority 2016, dated 2020).)
